Test results reported in the NIST ThermoML archive (doi:10.1021/je900091b).

Assays:
[1] = Liquid
[2] = xn = mol fraction of the nth substance listed; conditions: Liquid, x2 = 0

CCCCn1cc[n+](C)c1.F[P-](F)(F)(F)(F)F [1-butyl-3-methylimidazolium hexafluorophosphate]
[1]
Conditions	mass density [kg/m3]	viscosity [mPa·s]
283.15 K	1380.34	802.09
288.15 K	1376.06	552.57
293.15 K	1371.8	389.81
298.15 K	1367.53	282.24
303.15 K	1363.28	209.25
308.15 K	1359.19	159.15
313.15 K	1355.09	123.38
318.15 K	1350.98	97.78
323.15 K	1346.87	78.77
328.15 K	1342.78	61.34
333.15 K	1338.7	50.38
343.15 K	1330.56	35.25
353.15 K	1322.47	25.76

CCCCn1cc[n+](C)c1.F[P-](F)(F)(F)(F)F [1-butyl-3-methylimidazolium hexafluorophosphate] + C=C(C)C(=O)OC
[2]
Conditions	mass density [kg/m3]	viscosity [mPa·s]
283.15 K	1380.34	802.09
288.15 K	1376.06	552.57
293.15 K	1371.8	389.81
298.15 K	1367.53	282.24
303.15 K	1363.28	209.25
308.15 K	1359.19	159.15
313.15 K	1355.09	123.38
318.15 K	1350.98	97.78
323.15 K	1346.87	78.77
328.15 K	1342.78	61.34
333.15 K	1338.7	50.38
343.15 K	1330.56	35.25
353.15 K	1322.47	25.76

C=C(C)C(=O)OC [methyl methacrylate]
[1]
Conditions	mass density [kg/m3]	viscosity [mPa·s]
283.15 K	954.802	0.6808
288.15 K	949.097	0.6337
293.15 K	943.365	0.5899
298.15 K	937.615	0.554
303.15 K	931.837	0.5248
308.15 K	926.032	0.4956
313.15 K	920.185	0.4719
318.15 K	914.317	0.4497
323.15 K	908.405	0.4294
328.15 K	902.468	0.41
333.15 K	896.479	0.3938
343.15 K	884.418	0.3636
353.15 K	872.129	0.3398
